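Abbreviation: GI50, concentration required for 50% inhibition of growth. TGI is the concentration that stops growth completely.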
Columns and labels:
Experiment in all cases: NCI tumour cell line growth inhibition, 384-well format
[1] = tested on: 786-0 renal
[2] = tested on: CCRF-CEM leukemia
[3] = tested on: HOP-62 NSCLC
[4] = tested on: LOX IMVI melanoma
[5] = tested on: A549 NSCLC
[6] = tested on: NCI-H226 lung
[7] = tested on: M14 melanoma
[8] = tested on: PC-3 prostate
[9] = tested on: NCI/ADR-RES ovarian
[10] = tested on: MDA-MB-468 breast
[11] = tested on: MDA-MB-231 breast
[12] = tested on: HCC-2998 colon
[13] = tested on: NCI-H460 NSCLC
[14] = tested on: SK-MEL-28 melanoma
[15] = tested on: MOLT-4 leukemia
[16] = tested on: SNB-19 CNS
[17] = tested on: IGROV1 ovarian
[18] = tested on: UACC-62 melanoma
[19] = tested on: HT29 colon
[20] = tested on: A498 renal
[21] = tested on: T-47D breast
[22] = tested on: NCI-H522 lung
[23] = tested on: BT-549 breast
[24] = tested on: U251 glioblastoma
[25] = tested on: MALME-3M melanoma
[26] = tested on: HL-60(TB) leukemia
[27] = tested on: K-562 leukemia
[28] = tested on: MDA-MB-435 melanoma
[29] = tested on: OVCAR-8 ovarian
[30] = tested on: SK-OV-3 ovarian
[31] = tested on: MCF7 breast
[32] = tested on: RXF 393 renal
[33] = tested on: TK-10 renal
[34] = tested on: OVCAR-5 ovarian
[35] = tested on: NCI-H322M lung
[36] = tested on: SN12C renal
[37] = tested on: COLO 205 colon
[38] = tested on: HOP-92 NSCLC
[39] = tested on: HS 578T breast
[40] = tested on: OVCAR-4 ovarian
[41] = tested on: HCT-116 colon
[42] = tested on: KM12 colon
[43] = tested on: SF-268 CNS
[44] = tested on: HCT-15 colon
[45] = tested on: UO-31 renal
[46] = tested on: RPMI-8226 leukemia
[47] = tested on: NCI-H23 lung
[48] = tested on: DU-145 prostate
[49] = tested on: SF-295 CNS
[50] = tested on: SNB-75 CNS
[51] = tested on: SF-539 CNS
[52] = tested on: EKVX NSCLC
[53] = tested on: SW-620 colon
[54] = tested on: OVCAR-3 ovarian
[55] = tested on: SK-MEL-5 melanoma
[56] = tested on: CAKI-1 renal
[57] = tested on: ACHN renal
[58] = tested on: UACC-257 melanoma

CN1CCN(CCOc2cc(OC3CCOCC3)c3c(Nc4c(Cl)ccc5c4OCO5)ncnc3c2)CC1
GI50 [1]: 0.943 µM | TGI [1]: 15.2 µM | GI50 [2]: 14.3 µM | TGI [2]: 27.4 µM | GI50 [3]: 6.29 µM | TGI [3]: 19.7 µM | GI50 [4]: 0.448 µM | TGI [4]: 7 µM | GI50 [5]: 1.45 µM | TGI [5]: 17.9 µM | GI50 [6]: 12.5 µM | TGI [6]: 26.6 µM | GI50 [7]: 15.2 µM | TGI [7]: 28.6 µM | GI50 [8]: 14.1 µM | TGI [8]: 35 µM | GI50 [9]: 10.6 µM | TGI [9]: 23.8 µM | GI50 [10]: 0.403 µM | TGI [10]: 1.95 µM | GI50 [11]: 2.83 µM | TGI [11]: 17.6 µM | GI50 [12]: 5.25 µM | TGI [12]: 19 µM | GI50 [13]: 12.7 µM | TGI [13]: 25.5 µM | GI50 [14]: 14.7 µM | TGI [14]: 27.9 µM | GI50 [15]: 8.27 µM | TGI [15]: 21.2 µM | GI50 [16]: 9.59 µM | TGI [16]: 29 µM | GI50 [17]: 0.0603 µM | TGI [17]: 0.295 µM | GI50 [18]: 14.1 µM | TGI [18]: 27.1 µM | GI50 [19]: 1.43 µM | TGI [19]: 8.86 µM | GI50 [20]: 1.95 µM | TGI [20]: 12.6 µM | GI50 [21]: 0.171 µM | TGI [21]: 3.06 µM | GI50 [22]: 0.179 µM | TGI [22]: 10.7 µM | GI50 [23]: 2.77 µM | TGI [23]: 16.2 µM | GI50 [24]: 6.67 µM | TGI [24]: 19.9 µM | GI50 [25]: 14.1 µM | TGI [25]: 27.1 µM | GI50 [26]: 22.3 µM | TGI [26]: 36.8 µM | GI50 [27]: 0.132 µM | TGI [27]: 0.306 µM | GI50 [28]: 16.2 µM | TGI [28]: 29.8 µM | GI50 [29]: 8.72 µM | TGI [29]: 21.3 µM | GI50 [30]: 0.317 µM | TGI [30]: 13 µM | GI50 [31]: 9.74 µM | TGI [31]: 21.7 µM | GI50 [32]: 0.215 µM | TGI [32]: 2.94 µM | GI50 [33]: 1.67 µM | TGI [33]: 5.54 µM | GI50 [34]: 0.679 µM | TGI [34]: 12 µM | GI50 [35]: 0.387 µM | TGI [35]: 10.3 µM | GI50 [36]: 0.377 µM | TGI [36]: 12.8 µM | GI50 [37]: 14.9 µM | TGI [37]: 28.1 µM | GI50 [38]: 2.33 µM | TGI [38]: 17.4 µM | GI50 [39]: 0.387 µM | TGI [39]: 4.35 µM | GI50 [40]: 13 µM | TGI [40]: 26.1 µM | GI50 [41]: 10.7 µM | TGI [41]: 22.5 µM | GI50 [42]: 0.658 µM | TGI [42]: 14 µM | GI50 [43]: 0.55 µM | TGI [43]: 3.18 µM | GI50 [44]: 3.68 µM | TGI [44]: 18.9 µM | GI50 [45]: 0.446 µM | TGI [45]: 15.4 µM | GI50 [46]: 14.4 µM | TGI [46]: 27.5 µM | GI50 [47]: 5.77 µM | TGI [47]: 20.9 µM | GI50 [48]: 5.09 µM | TGI [48]: 18.7 µM | GI50 [49]: 11.4 µM | TGI [49]: 23.5 µM | GI50 [50]: 0.233 µM | TGI [50]: 0.835 µM | GI50 [51]: 10.7 µM | TGI [51]: 22.6 µM | GI50 [52]: 0.552 µM | TGI [52]: 11.9 µM | GI50 [53]: 19.3 µM | TGI [53]: 33.5 µM | GI50 [54]: 1.14 µM | TGI [54]: 16.8 µM | GI50 [55]: 10.8 µM | TGI [55]: 22.8 µM | GI50 [56]: 0.514 µM | TGI [56]: 13.6 µM | GI50 [57]: 0.317 µM | TGI [57]: 12.6 µM | GI50 [58]: 2.53 µM | TGI [58]: 10.5 µM
